Measured values from US8067440B2, “Phosphonium salts derivatives and uses thereof” (Valorisation-Recherche, Limited Partnership, priority 2004, dated 2011).
Counter-ions that a name gives are not always drawn.

melting point [°C]	SMILES
72 to 76	BrCc1ccc(-c2ccc([P+](c3ccccc3)(c3ccccc3)c3ccccc3)cc2)cc1 (as salt: perchlorate) [(16), 4-(4-bromomethylphenyl)phenyl triphenylphosphonium perchlorate]
215 to 220	[Br-].c1ccc(P(c2ccccc2)c2cccc([P+](c3ccccc3)(c3ccccc3)c3ccccc3)c2)cc1
